# Test results published in patent US6825218B1, “Spherical agglomerates of telithromycin, their preparation process and their use in the preparation of pharmaceutical forms” (Aventis Pharma S. A., priority 1999, dated 2004).
# Test: Granulometry: particle size by laser diffraction (HELOS SYMPATEC granulometer)
# Assay type: physicochemical
# Details: after sieving on a 500 μm grid
# Method: The size of the particles is determined by laser diffraction using a HELOS SYMPATEC® model granulometer.
structure (smiles),measurement,setting,value
"CC[C@H]1OC(=O)[C@H](C)C(=O)[C@H](C)[C@@H](O[C@@H]2O[C@H](C)C[C@H](N(C)C)[C@H]2O)[C@](C)(O)C[C@@H](C)C(=O)[C@H](C)[C@H]2N(CCCCn3cnc(-c4cccnc4)c3)C(=O)O[C@]12C [spherical agglomerates of telithromycin, 11,12-dideoxy-3-de((2,6-dideoxy-3-C-methyl-3-O-methyl-alpha-L-ribohexopyranosyl)oxy)-6-O-methyl-3-oxo-12,11-(oxycarbonyl((4-(4-(3-pyridinyl)-1H-imidazol-1-yl)butyl)imino))-erythromycin]",diameter of 10% of the particles,10% of the particles below this diameter,< 77 microns
same,diameter of 50% of the particles,50% of the particles below this diameter,< 107 microns
same,diameter of 90% of the particles,90% of the particles below this diameter,< 166 microns
